Results taken from publication PMC11488110 (Theranostics, 2024).
“Also recorded” adds a separate entry of the source.

Legend:
[1] = tested on: Salmonella typhimurium TA100; test: Ames MPF mutagenicity assay, TA100; assay type: cell-based
Procedure: An Ames microplate format (MPF) 98/100 mutagenesis assay kit (Xenometrix) was used to test mutagenic activity. The TA98 / TA100 Salmonella strain was inoculated into the bacterial culture medium and cultured overnight. The Salmonella test strain was then exposed to six concentrations of the test compound (plus positive and negative controls). Samples were prepared in 96-well plates in sterile DMSO. The cultured bacteria, test compound, and S9 mixture were incubated for 90 min at 37 °C in a shaking incubator. The mixture was then treated with an indicator medium and dispensed into 384-well plates. The plates were incubated at 37 °C for 48 h. The number of wells containing revertant colonies was counted for each dose.
Ta b l e S4 . Tw o -strain Ames mutagenic assess ment of 5a.
Straina Activity in the absence (-) of S9b Activity in the presence (+) of S9b TA 9 8 Negative (-) Negative (-)
TA 1 0 0 Negative (-) Negative (-) aSalmonella typhimurium strains TA98 (hi s D3052 mutation) and TA100 (hisG46 mutation) were used to detect frameshift mutations and base- pair substitution mutations, respectively. bAroclor 1254- induced rat liver S9 fraction for exogenous metabolic activation.

[2] = tested on: SH-SY5Y cells; test: BACE1 expression (western blot) in SH-SY5Y cells; assay type: cell-based, human; settings: 24 h
Procedure: For the in vitro co-transfection assay, CV-1 monkey kidney cells were cultured in Dulbecco's modified Eagle's medium (DMEM) supplemented with 10% resin-charcoal-stripped fetal bovine serum (FBS), 100 U/mL penicillin, and 100 µg/mL streptomycin. To investigate the anti-inflammatory effects of 5a, BV-2 microglial cells were cultured in RPMI 1640 (Biowest) supplemented with 10% heat-inactivated FBS (Biowest), 2.05 mM L-glutamine (Gibco), and 100 U/mL penicillin/streptomycin (Gibco). Primary mouse astrocytes were isolated from postnatal day 1 C57BL/6N mouse pups. The cerebral cortices collected with the meninges removed were triturated by gentle pipetting and centrifuged. Primary astrocytes were resuspended and cultured in DMEM supplemented with 10% heat-inactivated FBS (Biowest), 10% heat-inactivated horse serum (Gibco), and 100 U/mL penicillin/streptomycin (Gibco). […]
Total proteins were extracted from cells or mouse brain tissues using radioimmunoprecipitation assay (RIPA) buffer (Sigma-Aldrich) containing a protease and phosphatase inhibitor cocktail (Roche Diagnostics). […] Protein concentrations were determined using Pierce® BCA Protein Assay Kit (Thermo Fisher Scientific). […] The western blot bands were analyzed using ImageJ software (NIH) and β-Actin or glyceraldehyde 3-phosphate dehydrogenase (GAPDH) were used as a loading control. […]

[3] = tested on: PPARδ target genes (Pdk4, Angptl4, Cd36); test: qRT-PCR of PPARδ target genes in BV-2 microglia and mouse cortex; assay type: cell-based; settings: in vitro (BV-2, 24 h) and in vivo (cortex)
Procedure: Total RNA was isolated using TRIzol® (Invitrogen). Genomic DNA was removed and complementary DNA was synthesized from 500 ng total RNA using the iScript™ gDNA Clear cDNA Synthesis Kit (Bio-Rad). Real-time PCR was performed using the CFX Connect™ Real-Time PCR Detection System (Bio-Rad) using iQ™ SYBR® Green Supermix (Bio-Rad). The hypoxanthine phosphoribosyltransferase (Hprt) was used to normalize mRNA expression levels. Primer sequences used are described in Table S6.
Figure S8. 5a induces transcriptional activation of PPAR δ targ et genes in vitro an d in vivo.
(A-B) qRT-PCR anal ysi s of relative mRNA expression of Ppard and its downstream t arget genes, including Pdk4 , Angptl4, and Cd36. (A) BV-2 microglia were treated with 5a or […]
treated control (one -wa y ANOVA with Dunnett’s test). (B) Cortical homogenates from 10 - month- old WT and APP/PS1 mice treated with vehicle or 5a (30 m g/kg/day for 10 da ys, p.o ) were used for anal ysis (n = 3–4 mice per group). *P < 0.05 and ****P < 0.0001; n.s., not significant (one-wa y ANOVA with Tukey’s test). Hprt mRNA levels were used to normalize the expression of each gene.Data are p resented as mean ± SEM. GW: GW501516.
(1 picture or pasted object on this page, not shown here)

## Cc1cc(SCc2[se]c(-c3ccc(C(F)(F)F)cc3)nc2C)ccc1OCC(=O)O [Compound 5a, {2-Methyl-4-[4-methyl-2-(4-trifluoromethyl-phenyl)-selenazol-5-yl-methylsulfanyl]-phenoxy}-acetic acid]
[1]; TA100, with rat liver S9
  Ames mutagenic activity in the presence (+) of S9: Negative (-); also recorded: lacks mutagenicity
[1]; TA100, without S9
  Ames mutagenic activity in the absence (-) of S9: Negative (-); also recorded: lacks mutagenicity
[2]
  BACE1 expression in SH-SY5Y cells: dose-dependently reduced the expression of BACE1
[3]
  Transcription of PPARδ target genes Pdk4, Angptl4, Cd36: induced transcriptional activation
